“And” between values parts separate entries of the source, which are not always exact repeats. Identical values can stand only once. Inconclusive results and toxic doses are left out.

This assay has as its system BDF1 mice, P388 leukemia ip, median survival T/C. In words: NCI In Vivo Anticancer Drug Screen. Data for tumor model P388 Leukemia (intraperitoneal) in B6D2F1 (BDF1) mice. The settings on record: endpoint: median survival time, higher = longer survival. An outline of the steps:
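T/C = treated-group survival ÷ vehicle-control survival; tumour transplanted into mice before dosing.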

[1] abbreviates: dose: 50.0 mg/kg/injection, schedule: Q01DX009 (ip), vehicle: saline.
The mark [2] stands for this setting: dose: 50.0 mg/kg/injection, schedule: Q01DX009 (ip), vehicle: Klucel (hydroxypropylcellulose) (HPC).
The mark [3] stands for this setting: dose: 100.0 mg/kg/injection, schedule: Q01DX009 (ip), vehicle: Klucel (hydroxypropylcellulose) (HPC).
The mark [4] stands for this setting: dose: 50.0 mg/kg/injection, schedule: Q01DX009 (ip), vehicle: saline with Tween-80.
Setting [5] is: dose: 100.0 mg/kg/injection, schedule: Q01DX009 (ip), vehicle: saline with Tween-80.
[6] abbreviates: dose: 200.0 mg/kg/injection, schedule: Q01DX009 (ip), vehicle: saline with Tween-80.
[7] abbreviates: dose: 100.0 mg/kg/injection, schedule: Q04DX003 (ip), vehicle: Klucel (hydroxypropylcellulose) (HPC).
[8] abbreviates: dose: 200.0 mg/kg/injection, schedule: Q04DX003 (ip), vehicle: Klucel (hydroxypropylcellulose) (HPC).
Where [9] appears, read: dose: 400.0 mg/kg/injection, schedule: Q04DX003 (ip), vehicle: Klucel (hydroxypropylcellulose) (HPC).
Where [10] appears, read: dose: 200.0 mg/kg/injection, schedule: Q04DX003 (ip), vehicle: saline with Tween-80.

For `CC(CNCCN)C[Si](C)(C)C` (centres undefined), the T/C was 95 % of control (dose: 12.5 mg/kg/injection, schedule: Q01DX009 (ip), vehicle: saline); 88 % of control (dose: 12.5 mg/kg/injection, schedule: Q04DX003 (ip), vehicle: saline); 100 % of control (dose: 25.0 mg/kg/injection, schedule: Q01DX009 (ip), vehicle: saline); 100 % of control (dose: 25.0 mg/kg/injection, schedule: Q04DX003 (ip), vehicle: saline); 90 % of control under setting [1]; 94 % of control (dose: 50.0 mg/kg/injection, schedule: Q04DX003 (ip), vehicle: saline).
In the case of `C[C@]12C=CC(=O)C=C1CC[C@@H]1[C@@H]2[C@@H](O)C[C@@]2(C)[C@H]1CC[C@]2(O)C(=O)CO`, the T/C reads like this: (dose: 12.5 mg/kg/injection, schedule: Q01DX010 (sc), vehicle: steriod suspending solution) 109 % of control and 120 % of control; (dose: 25.0 mg/kg/injection, schedule: Q01DX010 (sc), vehicle: steriod suspending solution) 109 % of control and 110 % of control; (dose: 50.0 mg/kg/injection, schedule: Q01DX010 (sc), vehicle: steriod suspending solution) 113 % of control and 120 % of control; (dose: 100.0 mg/kg/injection, schedule: Q01DX010 (sc), vehicle: steriod suspending solution) 118 % of control and 120 % of control.
`O=C(CO)Nc1ccc(Br)cc1`: the T/C is 94 % of control under setting [2]; 104 % of control under setting [3]; 86 % of control (dose: 200.0 mg/kg/injection, schedule: Q01DX009 (ip), vehicle: Klucel (hydroxypropylcellulose) (HPC)).
In the case of `NC(=O)c1ccccc1NC(=O)c1ccccc1C(=O)O`, the T/C is, setting by setting: under setting [4], 99 % of control; under setting [5], 151 % of control; under setting [6], 153 % of control.
In the case of `CC(=O)N1CSCC1C(=O)O` (centres undefined), the T/C is 100 % of control under setting [7], 100 % of control under setting [8] and 100 % of control under setting [9].
Regarding `COCc1ccc([N+](=O)[O-])cc1`, the T/C reads like this: (dose: 25.0 mg/kg/injection, schedule: Q01DX001 (ip), vehicle: saline with Tween-80) 101 % of control; (dose: 50.0 mg/kg/injection, schedule: Q01DX001 (ip), vehicle: saline with Tween-80) 95 % of control; (dose: 100.0 mg/kg/injection, schedule: Q01DX001 (ip), vehicle: saline with Tween-80) 96 % of control and 107 % of control.
On to `Cc1onc(-c2ccccc2)c1NC(=O)OC(C)c1cccnc1` (centres undefined), for which the T/C reads like this: under setting [4], 103 % of control; under setting [5], 108 % of control; under setting [6], 119 % of control.
`CCCCCC(Br)C(Br)CC(Br)C(Br)CCCCCCCC(=O)O` (centres undefined): the T/C was 100 % of control (dose: 100.0 mg/kg/injection, schedule: Q01DX001 (ip), vehicle: Klucel (hydroxypropylcellulose) (HPC)); 109 % of control (dose: 200.0 mg/kg/injection, schedule: Q01DX001 (ip), vehicle: Klucel (hydroxypropylcellulose) (HPC)); 104 % of control (dose: 400.0 mg/kg/injection, schedule: Q01DX001 (ip), vehicle: Klucel (hydroxypropylcellulose) (HPC)).
For `CC1(C)N=C(N)N=C(N)N1c1cccc(OCCCOc2ccccc2)c1`, the T/C (dose: 50.0 mg/kg/injection, schedule: Q01DX001 (ip), vehicle: Klucel (hydroxypropylcellulose) (HPC)) was 106 % of control.
On to `O=C1Oc2ccccc2C(=O)/C1=C1\SSC(c2ccccc2)=C1c1ccccc1`, for which the T/C reads like this: under setting [4], 99 % of control; under setting [5], 96 % of control; under setting [6], 96 % of control.
Regarding `O=C(O)CCc1cccnc1`, under setting [5], the T/C was 104 % of control.
`O=C1C2CCCC1C(c1ccccc1)C=C2c1ccc(O)cc1` (centres undefined): the T/C (dose: 100.0 mg/kg/injection, schedule: Q04DX003 (ip), vehicle: saline with Tween-80) is 104 % of control; the T/C under setting [10] was 104 % of control; the T/C (dose: 400.0 mg/kg/injection, schedule: Q04DX003 (ip), vehicle: saline with Tween-80) is 114 % of control.
With `CC(C)(C)OC(=O)NN=C1CCC(C(C)(C)C)CC1` (centres undefined), the T/C runs as follows: (dose: 83.75 mg/kg/injection, schedule: Q01DX001 (ip), vehicle: Klucel (hydroxypropylcellulose) (HPC)) 95 % of control; under setting [5], 109 % of control; (dose: 150.0 mg/kg/injection, schedule: Q04DX003 (ip), vehicle: Klucel (hydroxypropylcellulose) (HPC)) 100 % of control; (dose: 167.5 mg/kg/injection, schedule: Q01DX001 (ip), vehicle: Klucel (hydroxypropylcellulose) (HPC)) 100 % of control; (dose: 225.0 mg/kg/injection, schedule: Q04DX003 (ip), vehicle: Klucel (hydroxypropylcellulose) (HPC)) 100 % of control; (dose: 335.0 mg/kg/injection, schedule: Q01DX001 (ip), vehicle: Klucel (hydroxypropylcellulose) (HPC)) 95 % of control. Where the note is “dose: 335.0 mg/kg/injection, schedule: Q04DX003 (ip), vehicle: Klucel (hydroxypropylcellulose) (HPC)”, the T/C is 90 % of control.
With `O=C(NS(=O)(=O)c1ccc(Cl)cc1)c1cccc2ccccc12`, the T/C runs as follows: (dose: 25.0 mg/kg/injection, schedule: Q01DX009 (ip), vehicle: Klucel (hydroxypropylcellulose) (HPC)) 95 % of control; under setting [2], 90 % of control; under setting [3], 109 % of control.
Consider `CCOC(=O)NCCCCCCNC(=O)OCC`, for which the T/C by setting is: under setting [4], 95 % of control; under setting [5], 100 % of control; under setting [10], 90 % of control.
For the compound `CN(C)CCCNC1=CC(=O)c2ccccc2C1=O`, the T/C reads like this: (dose: 1.56 mg/kg/injection, schedule: Q04DX003 (ip), vehicle: water) 108 % of control; (dose: 3.12 mg/kg/injection, schedule: Q04DX003 (ip), vehicle: water) 97 % of control and 98 % of control; (dose: 6.25 mg/kg/injection, schedule: Q01DX009 (ip), vehicle: water) 99 % of control; (dose: 6.25 mg/kg/injection, schedule: Q04DX003 (ip), vehicle: water) 91 % of control and 101 % of control; (dose: 12.5 mg/kg/injection, schedule: Q01DX009 (ip), vehicle: water) 103 % of control; (dose: 12.5 mg/kg/injection, schedule: Q04DX003 (ip), vehicle: water) 97 % of control and 102 % of control. Further, the T/C is, setting by setting: (dose: 25.0 mg/kg/injection, schedule: Q01DX009 (ip), vehicle: water) 110 % of control; (dose: 25.0 mg/kg/injection, schedule: Q04DX003 (ip), vehicle: water) 103 % of control and 119 % of control; (dose: 50.0 mg/kg/injection, schedule: Q01DX009 (ip), vehicle: water) 94 % of control; (dose: 50.0 mg/kg/injection, schedule: Q04DX003 (ip), vehicle: water) 91 % of control; (dose: 100.0 mg/kg/injection, schedule: Q01DX009 (ip), vehicle: water) 103 % of control.
With `CC1=CC(C)(C)Nc2ccc(CSc3ccccc3)cc21`, the T/C was 102 % of control (dose: 50.0 mg/kg/injection, schedule: Q01DX009 (ip), vehicle: saline + alcohol); 120 % of control (dose: 100.0 mg/kg/injection, schedule: Q01DX009 (ip), vehicle: saline + alcohol); 120 % of control (dose: 200.0 mg/kg/injection, schedule: Q01DX009 (ip), vehicle: saline + alcohol).
In the case of `COC(=O)N1CCC2OC2C1` (centres undefined), the T/C under setting [1] is 99 % of control; the T/C (dose: 100.0 mg/kg/injection, schedule: Q01DX009 (ip), vehicle: saline) is 107 % of control; the T/C (dose: 200.0 mg/kg/injection, schedule: Q01DX009 (ip), vehicle: saline) is 100 % of control.
Turning to `C=C(C)c1ccc(C)c(C)c1`, the T/C reads like this: under setting [5], 106 % of control; (dose: 400.0 mg/kg/injection, schedule: Q01DX009 (ip), vehicle: saline with Tween-80) 122 % of control.
For `C=C1C/C(=C/C)C(=O)O[C@@H]2CCN3CC=C(COC(=O)[C@]1(C)O)[C@H]23`, the T/C (dose: 25.0 mg/kg/injection, schedule: Q01DX010 (ip), vehicle: carboxymethylcellulose (CMC)) was 111 % of control; the T/C (dose: 50.0 mg/kg/injection, schedule: Q01DX010 (ip), vehicle: carboxymethylcellulose (CMC)) is 111 % of control; the T/C (dose: 100.0 mg/kg/injection, schedule: Q01DX010 (ip), vehicle: carboxymethylcellulose (CMC)) is 111 % of control.
Consider `Nc1ccc(C(=O)O)cc1S(=O)(=O)c1cc(C(=O)O)ccc1N`, for which the T/C is, setting by setting: under setting [2], 88 % of control; under setting [3], 91 % of control.
Turning to `COc1c(Br)cc(Br)cc1Br`, the T/C was 108 % of control under setting [7], 100 % of control under setting [8] and 100 % of control under setting [9].
In the case of `C=C1CCC2(C(C)C)CC12` (centres undefined), the T/C is 109 % of control (dose: 100.0 mg/kg/injection, schedule: Q01DX001 (ip), vehicle: saline sonified); 104 % of control (dose: 200.0 mg/kg/injection, schedule: Q01DX001 (ip), vehicle: saline sonified); 104 % of control (dose: 400.0 mg/kg/injection, schedule: Q01DX001 (ip), vehicle: saline sonified).

The record behind these values is PubChem BioAssay AID328 (DTP/NCI, 2004).
